Source: US11691972B2, “Compounds for targeted degradation of BRD9” (C4 Therapeutics, Inc., priority 2020, dated 2023)

Key:
Yamato-SS = experiment: Synovial sarcoma xenograft model Yamato-SS, tumor volume; assay type: in vivo; conditions: BALB/c nude mice
Experimental: Yamato-SS cells were maintained in vitro until exponential growth phase and inoculated subcutaneously into BALB/c nude mice at the right flank for tumor development. Treatments of Compound 172 were started at the appropriate tumor volume. Mice were treated with 40 mg/kg PO QD of Compound 172 and tumor volumes (x-axis) were measured twice a week using a caliper. The x-axis is time after start of treatment measured in days and the y-axis is tumor volume measured in mm^3.
Yamato-SS cells were maintained in vitro until exponential growth phase and inoculated subcutaneously into BALB/c nude mice at the right flank. Treatments of Compound 172 were started at the appropriate tumor volume. Mice were randomized into groups and treated with 6, 17, or 50 mg/kg PO QD of Compound 172 and tumor volumes (x-axis) were measured twice a week using a caliper. The x-axis is time after start of treatment measured in days and the y-axis is tumor volume measured in mm^3.
Yamato-SS cells were maintained in vitro until exponential growth phase and inoculated subcutaneously into BALB/c nude mice at the right flank for tumor development. Treatments of Compound 176 were started at the appropriate tumor volume. Mice were treated as indicated with Compound 176 and tumor volumes (x-axis) were measured twice a week using a caliper. The x-axis is time after start of treatment measured in days and the y-axis is tumor volume measured in mm^3.

Plasma stability, dog = assay type: in vitro ADME
hERG = hERG (Homo sapiens, UniProt Q12809); experiment: hERG
PO PK, rat = assay type: in vivo; conditions: for PO PK AUC(0-last) / PO PK Cmax: dose-normalised; for bioavailability / half-life: in vivo; for bioavailability: read-out: PO PK F%; for half-life: read-out: PO PK t1/2 (converted)
PPB, dog = assay type: in vitro ADME; conditions: plasma
PPB, human = assay type: in vitro ADME; conditions: plasma
IV PK, rat = assay type: in vivo; conditions: for IV PK AUC(0-last) / IV PK Cmax: dose-normalised; for clearance / Vd / half-life: in vivo; for clearance: read-out: IV PK CL; for Vd: read-out: IV PK Vdss; for half-life: read-out: IV PK t1/2 (converted)
[1] = Hepatocyte stability, mouse; assay type: in vitro ADME; conditions: mouse hepatocytes; read-out: Hepatocyte stability, Clint scaled ws
PPB, rat = assay type: in vitro ADME; conditions: plasma
[2] = system: Yamato-SS xenograft model; experiment: Tumor volume in the Yamato-SS xenograft (CDX) model; assay type: in vivo, mouse
Plasma stability, rat = assay type: in vitro ADME
[3] = Hepatocyte stability, dog; assay type: in vitro ADME; conditions: dog hepatocytes; read-out: Hepatocyte stability, Clint scaled ws
BRD9 = molecular target: T1, BRD9 (Homo sapiens, UniProt Q9H8M2); experiment: Western blot, in-vivo BRD9 degradation in Yamato-SS tumors; set-up: inoculated subcutaneously into BALB/c nude mice at the right flank for tumor development; from tissue; host or cells: Yamato-SS xenograft tumours in BALB/c nude mice; species or system BALB/c nude mice
T1 sequence (Q9H8M2 1-597): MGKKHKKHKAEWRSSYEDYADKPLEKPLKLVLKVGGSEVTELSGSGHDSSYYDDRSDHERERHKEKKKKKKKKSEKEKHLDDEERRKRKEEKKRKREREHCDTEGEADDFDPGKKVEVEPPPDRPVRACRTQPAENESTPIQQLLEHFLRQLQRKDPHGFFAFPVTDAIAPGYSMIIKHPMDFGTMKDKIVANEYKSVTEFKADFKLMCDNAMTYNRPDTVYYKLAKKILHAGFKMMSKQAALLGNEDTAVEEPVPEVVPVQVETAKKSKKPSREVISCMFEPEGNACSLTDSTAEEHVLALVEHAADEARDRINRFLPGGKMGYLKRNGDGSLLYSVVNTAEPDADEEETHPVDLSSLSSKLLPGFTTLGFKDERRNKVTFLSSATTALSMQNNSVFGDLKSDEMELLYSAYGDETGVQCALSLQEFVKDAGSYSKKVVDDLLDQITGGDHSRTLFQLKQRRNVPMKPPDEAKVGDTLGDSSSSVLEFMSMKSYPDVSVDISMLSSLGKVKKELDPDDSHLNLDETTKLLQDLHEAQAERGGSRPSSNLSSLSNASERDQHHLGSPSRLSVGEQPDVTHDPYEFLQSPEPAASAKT
Experimental: Yamato-SS cells were maintained in vitro until exponential growth phase and inoculated subcutaneously into BALB/c nude mice at the right flank for tumor development. Mice were treated with single dose of Compound 172 at 10 or 75 mg/kg PO. Tumor were collected at indicated time points and snap frozen until lysis. Tumors were ground and lysed in RIPA Buffer containing 2× protease/phosphatase inhibitor using a freeze grinder at 50 Hz for 5 minutes. Protein concentrations were determined by Pierce™ BCA Protein Assay Kit. Samples were diluted to appropriate concentrations and run in a western blot.
Yamato-SS were maintained in vitro until exponential growth phase and inoculated subcutaneously into BALB/c nude mice at the right flank. Mice were treated with single dose of Compound 176 at 3, 12 or 50 mg/kg PO. Tumor were collected at indicated time points and snap frozen until lysis. Tumors were ground and lysed in RIPA Buffer containing 2× protease/phosphatase inhibitor using a freeze grinder at 50 Hz for 5 minutes. Protein concentrations were determined by Pierce™ BCA Protein Assay Kit. Samples were diluted to appropriate concentrations and run in a western blot.
FIG. 20 is a histogram reflecting quantitated bands from FIG. 19. The x axis is time measured in hours and the y axis is BRD9 remaining normalized to vehicle and vinculin measured in percentage.

Plasma stability, human = assay type: in vitro ADME
PPB, mouse = assay type: in vitro ADME; conditions: plasma
Plasma stability, mouse = assay type: in vitro ADME
PO PK, mouse = assay type: in vivo; conditions: for PO PK AUC(0-last) / PO PK Cmax: dose-normalised; for bioavailability / half-life: in vivo; for bioavailability: read-out: PO PK F%; for half-life: read-out: PO PK t1/2 (converted)
[4] = Hepatocyte stability, rat; assay type: in vitro ADME; conditions: rat hepatocytes; read-out: Hepatocyte stability, Clint scaled ws
Yamato-SS cells = experiment: Confluence (growth) over time in Yamato-SS cells; assay type: cell-based, human

Sequence of hERG (Q12809 whole entry): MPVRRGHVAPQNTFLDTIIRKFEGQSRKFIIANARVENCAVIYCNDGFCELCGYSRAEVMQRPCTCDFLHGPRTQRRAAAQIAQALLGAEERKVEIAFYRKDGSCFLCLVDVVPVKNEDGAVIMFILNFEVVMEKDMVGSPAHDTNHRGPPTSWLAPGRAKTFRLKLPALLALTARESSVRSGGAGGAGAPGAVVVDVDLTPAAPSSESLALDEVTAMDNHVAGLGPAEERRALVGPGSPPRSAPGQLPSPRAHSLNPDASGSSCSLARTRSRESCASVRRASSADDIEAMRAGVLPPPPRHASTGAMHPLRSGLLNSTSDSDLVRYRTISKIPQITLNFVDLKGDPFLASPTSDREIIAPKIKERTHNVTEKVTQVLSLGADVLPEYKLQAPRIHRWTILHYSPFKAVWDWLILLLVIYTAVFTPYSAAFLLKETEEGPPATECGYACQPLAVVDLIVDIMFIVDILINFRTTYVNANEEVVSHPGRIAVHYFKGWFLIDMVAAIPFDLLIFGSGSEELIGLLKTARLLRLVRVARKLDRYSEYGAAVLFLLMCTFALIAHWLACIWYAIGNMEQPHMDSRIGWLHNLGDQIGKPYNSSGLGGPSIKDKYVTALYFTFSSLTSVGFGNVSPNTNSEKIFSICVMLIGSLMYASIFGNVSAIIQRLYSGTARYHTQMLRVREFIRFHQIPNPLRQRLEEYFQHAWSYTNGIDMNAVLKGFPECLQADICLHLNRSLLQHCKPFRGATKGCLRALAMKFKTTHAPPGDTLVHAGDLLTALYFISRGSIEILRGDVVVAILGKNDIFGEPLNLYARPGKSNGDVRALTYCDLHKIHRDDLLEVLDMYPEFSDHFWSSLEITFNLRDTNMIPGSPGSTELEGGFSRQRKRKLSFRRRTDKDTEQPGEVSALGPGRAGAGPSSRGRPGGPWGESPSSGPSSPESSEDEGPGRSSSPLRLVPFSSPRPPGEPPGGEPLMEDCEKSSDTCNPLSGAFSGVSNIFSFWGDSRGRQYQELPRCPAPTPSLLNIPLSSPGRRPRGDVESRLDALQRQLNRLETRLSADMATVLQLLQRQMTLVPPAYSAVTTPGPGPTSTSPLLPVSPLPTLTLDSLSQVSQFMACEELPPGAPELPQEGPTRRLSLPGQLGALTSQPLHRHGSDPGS

SMILES	Stability (plasma) % remaining @3 hrs (Plasma stability, dog)	IC50 (hERG)	PO PK AUC(0-last) (PO PK, rat)	PO PK Cmax (PO PK, rat)	bioavailability (PO PK, rat)	half-life (PO PK, rat)	fraction unbound (PPB, dog)	fraction unbound (PPB, human)	IV PK AUC(0-last) (IV PK, rat)	IV PK Cmax (IV PK, rat)	clearance (IV PK, rat)	Vd (IV PK, rat)	half-life (IV PK, rat)	CLint scaled [1]	fraction unbound (PPB, rat)	Stability (plasma) % remaining @3 hrs (Plasma stability, rat)	CLint scaled [3]	Stability (plasma) % remaining @3 hrs (Plasma stability, human)	fraction unbound (PPB, mouse)	Stability (plasma) % remaining @3 hrs (Plasma stability, mouse)	also measured
COc1cc(-c2cn(C)c(=O)c(C)c2C)cc(OC)c1CN1CCC(N2CCN(c3ccc(NC4CCC(=O)NC4=O)cc3F)CC2)C(F)(F)C1 (single isomer, unassigned) [Compound 176, 3-[4-[4-[1-[[2,6-dimethoxy-4-(1,4,5-trimethyl-6-oxo-3-pyridyl)phenyl]methyl]-3,3-difluoro-4-piperidyl]piperazin-1-yl]-3-fluoro-anilino]piperidine-2,6-dione]	100%	> 30 µM	656 (h*ng/mL)/(mg/kg)	75 (ng/mL)/(mg/kg)	83%	5.1 h	0.065	0.067	771 (h*ng/mL)/(mg/kg)	439 [ng/mL]/(mg/kg)	21.6 mL/min/kg	6.7 L/kg	4 h	30 mL/min/kg	0.098	88%	8.6 mL/min/kg	67%	0.034	85%	tumor volume after treatment, Yamato-SS xenograft (Yamato-SS; treated as indicated, FIG. 21): strong effect; mean tumor volume+SEM ([2]; synovial sarcoma CDX model (Yamato SS), various concentrations, FIG. 21): efficacy; in-vivo BRD9 degradation, western blot (BRD9; single dose 3, 12 or 50 mg/kg PO, 1, 4, 12, 24, 48 hr, FIG. 19): time dependent in-vivo BRD9 degradation; PO PK AUC(0-last) (PO PK, mouse): 1999 (h*ng/mL)/(mg/kg); PO PK Cmax (PO PK, mouse): 346 (ng/mL)/(mg/kg); bioavailability (PO PK, mouse): 74%; half-life (PO PK, mouse): 3.5 h; CLint scaled [4]: 14.2 mL/min/kg; confluence as a percentage of control, single dose long term growth evaluation (Yamato-SS cells; BAF perturbed Yamato-SS model, various concentrations, FIG. 16): selective growth inhibition
COc1cc(-c2cn(C)c(=O)c(C)c2C)cc(OC)c1CN1CCC(N2CCN(c3ccc(NC4CCC(=O)NC4=O)cc3F)CC2)C(F)(F)C1 (centres unmarked) [Compound 172, 3-[4-[4-[1-[[2,6-dimethoxy-4-(1,4,5-trimethyl-6-oxo-3-pyridyl)phenyl]methyl]-3,3-difluoro-4-piperidyl]piperazin-1-yl]-3-fluoro-anilino]piperidine-2,6-dione]	80.2%	> 30 µM	520 (h*ng/mL)/(mg/kg)	92 (ng/mL)/(mg/kg)	49%	4.3 h	0.039	0.088	1230 (h*ng/mL)/(mg/kg)	517 [ng/mL]/(mg/kg)	16 mL/min/kg	7.9 L/kg	9.5 h	38 mL/min/kg	0.083	97.0%	2 mL/min/kg	83.4%	0.018	90.3%	tumor volume after treatment, Yamato-SS xenograft (Yamato-SS; 40 mg/kg PO QD, FIG. 1): strong effect; tumor volume after treatment, Yamato-SS xenograft, dose response (Yamato-SS; 6, 17, or 50 mg/kg PO QD, FIG. 7): dose dependent efficacy; response of tumor volume to various concentrations ([2]; Yamato-SS xenograft model, FIG. 7): dose dependent efficacy; in-vivo BRD9 degradation, western blot (BRD9; single dose 10 or 75 mg/kg PO, FIG. 12, not BRD7): dose dependent in-vivo BRD9 degradation; PO PK AUC(0-last) (PO PK, mouse): 5947 (h*ng/mL)/(mg/kg); PO PK Cmax (PO PK, mouse): 844 (ng/mL)/(mg/kg); bioavailability (PO PK, mouse): 122%; half-life (PO PK, mouse): 3.3 h; CLint scaled [4]: 15 mL/min/kg; confluence as a percentage of control over time (Yamato-SS cells; Yamato-SS cells, FIG. 4): growth inhibition
